# Measured values from patent publication US9469650B2, “Melampomagnolide B derivatives” (BOARD OF TRUSTEES OF THE UNIVERSITY OF ARKANSAS, priority 2013, dated 2016).
# Assays:
# NCI/ADR-RES = assay: panel of 60 human tumor cell lines, growth inhibition (Ovarian Cancer)
# T-47D = assay: panel of 60 human tumor cell lines, growth inhibition (Breast Cancer); conditions: T-47D
# SK-MEL-28 = assay: panel of 60 human tumor cell lines, growth inhibition (Melanoma); conditions: SK-MEL-28
# TK-10 = assay: panel of 60 human tumor cell lines, growth inhibition (Renal Cancer); conditions: TK-10
# CCRF-CEM = assay: panel of 60 human tumor cell lines, growth inhibition (Leukemia)
# ACHN = assay: panel of 60 human tumor cell lines, growth inhibition (Renal Cancer)
# SF-539 = assay: panel of 60 human tumor cell lines, growth inhibition (CNS Cancer); conditions: SF-539
# HT29 = assay: panel of 60 human tumor cell lines, growth inhibition (Colon Cancer); conditions: HT29
# SK-MEL-5 = assay: panel of 60 human tumor cell lines, growth inhibition (Melanoma); conditions: 8K-MEL-5
# NCI-H460 = assay: panel of 60 human tumor cell lines, growth inhibition (Non-Small Cell Lung Cancer); conditions: NCI-H460
# HS 578T = assay: panel of 60 human tumor cell lines, growth inhibition (Breast Cancer); conditions: HS 578T
# SR = assay: panel of 60 human tumor cell lines, growth inhibition (Leukemia)
# NCI-H23 = assay: panel of 60 human tumor cell lines, growth inhibition (Non-Small Cell Lung Cancer); conditions: NCI-H23
# MDA-MB-435 = assay: panel of 60 human tumor cell lines, growth inhibition (Melanoma); conditions: MDA-MB-435
# COLO 205 = assay: panel of 60 human tumor cell lines, growth inhibition (Colon Cancer); conditions: COLO 205
# MDA-MB-468 = assay: panel of 60 human tumor cell lines, growth inhibition (Breast Cancer); conditions: MDA-MB-468
# OVCAR-8 = assay: panel of 60 human tumor cell lines, growth inhibition (Ovarian Cancer); conditions: OVCAR-8
# MOLT-4 = assay: panel of 60 human tumor cell lines, growth inhibition (Leukemia); conditions: MOLT-4
smiles,measurement,setting,value
C=C1C(=O)O[C@H]2[C@H]1CC/C(COC(=O)NCCO)=C\CC[C@@]1(C)O[C@@H]21 [JVM 2-50],Percent Growth,NCI/ADR-RES; Log10 Concentration −4.0,16%
same,Percent Growth,NCI/ADR-RES; Log10 Concentration −5.0,105%
same,Percent Growth,NCI/ADR-RES; Log10 Concentration −6.0,106%
same,Percent Growth,NCI/ADR-RES; Log10 Concentration −7.0,113%
same,Percent Growth,NCI/ADR-RES; Log10 Concentration −8.0,108%
same,GI50,NCI/ADR-RES; NCI five dose,41.5 µM
same,TGI,NCI/ADR-RES; NCI five dose,>1.00E−4
same,Percent Growth,T-47D; Log10 Concentration −4.0,−54%
same,Percent Growth,T-47D; Log10 Concentration −5.0,16%
same,Percent Growth,T-47D; Log10 Concentration −6.0,69%
same,Percent Growth,T-47D; Log10 Concentration −7.0,95%
same,Percent Growth,T-47D; Log10 Concentration −8.0,89%
same,GI50,T-47D; NCI five dose,3.46 µM
same,TGI,T-47D; NCI five dose,1.71E−5
same,Percent Growth,SK-MEL-28; Log10 Concentration −4.0,−61%
same,Percent Growth,SK-MEL-28; Log10 Concentration −5.0,48%
same,Percent Growth,SK-MEL-28; Log10 Concentration −6.0,99%
same,Percent Growth,SK-MEL-28; Log10 Concentration −7.0,104%
same,Percent Growth,SK-MEL-28; Log10 Concentration −8.0,95%
same,GI50,SK-MEL-28; NCI five dose,9.33 µM
same,TGI,SK-MEL-28; NCI five dose,2.77E−5
same,Percent Growth,TK-10; Log10 Concentration −4.0,−91%
same,Percent Growth,TK-10; Log10 Concentration −5.0,55%
same,Percent Growth,TK-10; Log10 Concentration −6.0,110%
same,Percent Growth,TK-10; Log10 Concentration −7.0,103%
same,Percent Growth,TK-10; Log10 Concentration −8.0,100%
same,GI50,TK-10; NCI five dose,10.8 µM
same,Percent Growth,CCRF-CEM; Log10 Concentration −4.0,−44%
same,Percent Growth,CCRF-CEM; Log10 Concentration −5.0,1%
same,Percent Growth,CCRF-CEM; Log10 Concentration −6.0,83%
same,Percent Growth,CCRF-CEM; Log10 Concentration −7.0,102%
same,Percent Growth,CCRF-CEM; Log10 Concentration −8.0,98%
same,GI50,CCRF-CEM; NCI five dose,2.52 µM
same,TGI,CCRF-CEM; NCI five dose,1.03E−5
same,Percent Growth,ACHN; Log10 Concentration −4.0,84%
same,Percent Growth,ACHN; Log10 Concentration −5.0,43%
same,Percent Growth,ACHN; Log10 Concentration −6.0,99%
same,Percent Growth,ACHN; Log10 Concentration −7.0,101%
same,Percent Growth,ACHN; Log10 Concentration −8.0,96%
same,GI50,ACHN; NCI five dose,7.44 µM
same,TGI,ACHN; NCI five dose,2.52E−5
same,Percent Growth,SF-539; Log10 Concentration −4.0,−85%
same,Percent Growth,SF-539; Log10 Concentration −5.0,54%
same,Percent Growth,SF-539; Log10 Concentration −6.0,93%
same,Percent Growth,SF-539; Log10 Concentration −7.0,95%
same,Percent Growth,SF-539; Log10 Concentration −8.0,95%
same,GI50,SF-539; NCI five dose,10.8 µM
same,TGI,SF-539; NCI five dose,2.46E−5
same,Percent Growth,HT29; Log10 Concentration −4.0,−47%
same,Percent Growth,HT29; Log10 Concentration −5.0,57%
same,Percent Growth,HT29; Log10 Concentration −6.0,109%
same,Percent Growth,HT29; Log10 Concentration −7.0,104%
same,Percent Growth,HT29; Log10 Concentration −8.0,99%
same,GI50,HT29; NCI five dose,11.7 µM
same,TGI,HT29; NCI five dose,3.55E−5
same,Percent Growth,SK-MEL-5; Log10 Concentration −4.0,−34%
same,Percent Growth,SK-MEL-5; Log10 Concentration −5.0,84%
same,Percent Growth,SK-MEL-5; Log10 Concentration −6.0,100%
same,Percent Growth,SK-MEL-5; Log10 Concentration −7.0,100%
same,Percent Growth,SK-MEL-5; Log10 Concentration −8.0,102%
same,GI50,SK-MEL-5; NCI five dose,19.5 µM
same,TGI,SK-MEL-5; NCI five dose,5.15E−5
same,Percent Growth,NCI-H460; Log10 Concentration −4.0,8%
same,Percent Growth,NCI-H460; Log10 Concentration −5.0,98%
same,Percent Growth,NCI-H460; Log10 Concentration −6.0,98%
same,Percent Growth,NCI-H460; Log10 Concentration −7.0,100%
same,Percent Growth,NCI-H460; Log10 Concentration −8.0,100%
same,GI50,NCI-H460; NCI five dose,34 µM
same,TGI,NCI-H460; NCI five dose,>1.00E−4
same,Percent Growth,HS 578T; Log10 Concentration −4.0,22%
same,Percent Growth,HS 578T; Log10 Concentration −5.0,82%
same,Percent Growth,HS 578T; Log10 Concentration −6.0,91%
same,Percent Growth,HS 578T; Log10 Concentration −7.0,88%
same,Percent Growth,HS 578T; Log10 Concentration −8.0,92%
same,GI50,HS 578T; NCI five dose,34.3 µM
same,TGI,HS 578T; NCI five dose,>1.00E−4
same,Percent Growth,SR; Log10 Concentration −4.0,−30%
same,Percent Growth,SR; Log10 Concentration −5.0,18%
same,Percent Growth,SR; Log10 Concentration −6.0,91%
same,Percent Growth,SR; Log10 Concentration −7.0,100%
same,Percent Growth,SR; Log10 Concentration −8.0,100%
same,GI50,SR; NCI five dose,3.67 µM
same,Percent Growth,NCI-H23; Log10 Concentration −4.0,−53%
same,Percent Growth,NCI-H23; Log10 Concentration −5.0,67%
same,Percent Growth,NCI-H23; Log10 Concentration −6.0,100%
same,Percent Growth,NCI-H23; Log10 Concentration −7.0,102%
same,Percent Growth,NCI-H23; Log10 Concentration −8.0,98%
same,GI50,NCI-H23; NCI five dose,13.8 µM
same,TGI,NCI-H23; NCI five dose,3.61E−5
same,Percent Growth,MDA-MB-435; Log10 Concentration −4.0,−84%
same,Percent Growth,MDA-MB-435; Log10 Concentration −5.0,40%
same,Percent Growth,MDA-MB-435; Log10 Concentration −6.0,91%
same,Percent Growth,MDA-MB-435; Log10 Concentration −7.0,96%
same,Percent Growth,MDA-MB-435; Log10 Concentration −8.0,91%
same,GI50,MDA-MB-435; NCI five dose,6.37 µM
same,TGI,MDA-MB-435; NCI five dose,2.10E−5
same,Percent Growth,COLO 205; Log10 Concentration −4.0,−80%
same,Percent Growth,COLO 205; Log10 Concentration −5.0,21%
same,Percent Growth,COLO 205; Log10 Concentration −6.0,108%
same,Percent Growth,COLO 205; Log10 Concentration −7.0,106%
same,Percent Growth,COLO 205; Log10 Concentration −8.0,96%
same,GI50,COLO 205; NCI five dose,4.87 µM
same,TGI,COLO 205; NCI five dose,1.62E−5
same,Percent Growth,MDA-MB-468; Log10 Concentration −4.0,−67%
same,Percent Growth,MDA-MB-468; Log10 Concentration −5.0,−12%
same,Percent Growth,MDA-MB-468; Log10 Concentration −6.0,67%
same,Percent Growth,MDA-MB-468; Log10 Concentration −7.0,91%
same,Percent Growth,MDA-MB-468; Log10 Concentration −8.0,98%
same,GI50,MDA-MB-468; NCI five dose,1.64 µM
same,TGI,MDA-MB-468; NCI five dose,7.01E−6
same,Percent Growth,OVCAR-8; Log10 Concentration −4.0,−25%
same,Percent Growth,OVCAR-8; Log10 Concentration −5.0,62%
same,Percent Growth,OVCAR-8; Log10 Concentration −6.0,97%
same,Percent Growth,OVCAR-8; Log10 Concentration −7.0,96%
same,Percent Growth,OVCAR-8; Log10 Concentration −8.0,98%
same,GI50,OVCAR-8; NCI five dose,13.7 µM
same,TGI,OVCAR-8; NCI five dose,5.15E−5
same,Percent Growth,MOLT-4; Log10 Concentration −4.0,−39%
same,Percent Growth,MOLT-4; Log10 Concentration −5.0,43%
same,Percent Growth,MOLT-4; Log10 Concentration −6.0,103%
same,Percent Growth,MOLT-4; Log10 Concentration −7.0,114%
same,Percent Growth,MOLT-4; Log10 Concentration −8.0,106%
same,GI50,MOLT-4; NCI five dose,7.65 µM
